From publication PMC3812159, “A Comparative Analysis of the Ubiquitination Kinetics of Multiple Degrons to Identify an Ideal Targeting Sequence for a Proteasome Reporter” (PLoS ONE, 2013)
Blank lines part the entries; values can stand above or below the compound they belong to.

Key:
[1] = test system: endogenous proteases and peptidases found in the S100 lysates
[2] = test system: HeLa S100 cytosolic lysates as the source of E1, E2, and E3 enzymes; assay: Ubiquitin pull down assay with methylated ubiquitin, multi-monoubiquitination kinetic model; type: biochemical; conditions: ratio of fitted rate constants, >1 favours ubiquitination, <1 degradation
Excerpt: A second model based on substrate multi-monoubiquitination was developed and evaluated. This model assumed that the generation of di-, tri-, and tetra-ubiquitinated species was the result of multiple methylated ubiquitins being conjugated to the multiple available lysines found on the degron-based substrate (Figure 3a). As opposed to the polyubiquitination model, the multi-monoubiquitination model accurately fit the data for all eight degron-based substrates (Figure 3b–d, Figure S4 in File S1, Table 2). Using this model, kinetic rate constants for all ubiquitination (k1 for mono-, k2 for di-, k3 for tri-, and k4 for tetra-) and peptidase-dependent degradation steps (Table 2) were calculated. The multi-monoubiquitination model nicely corresponded to the observed results in Figure 2. […] The model also captured the preference for di-ubiquitination of the Cyclin D1 degron (k2 is two-fold greater than k1) and the equal preference of mono- and di-ubiquitination states found in the HIF-1α degron (k1 of 2.6 and k2 of 3.0). Further, the similar behavior and observed kinetics for IFNAR and TAZ degrons were mostly likely due to the fact that these degrons are recognized by the same E3 ligase, SCF^βTrCP (Table 1). To test the robustness of the multi-monoubiquitination model, a ninth substrate based on the degron from the protein β-Catenin was assessed. This substrate was selected because it is ubiquitinated by the same E3 ligase as TAZ and IFNAR1, SCF^βTrCP. The model accurately fit the data for the multi-monoubiquitination of the β-Catenin degron-based substrate with similar rate constants compared to the TAZ and IFNAR1-based substrates (Table 2). Finally, it was important to assess the validity of the model by addressing the relative goodness of fit between the experimental data and the model predictions as determined from the multi-monoubiquitination model. For this particular analysis it was decided to calculate the sample Pearson correlation coefficient (Eq. S10 in File S1), a widely used metric to measure the dependence between two variables. A correlation coefficient was calculated between the model predictions and experimental data for mono-, di-, tri-, and tetra-ubiquitinated substrate for all nine degron-based substrates (Table S1 in File S1). As per convention, a positive value approaching 1 corresponds to a very good fit, which is observed for all nine substrates indicating a good fit between model and data.

[3] = test system: SCF^βTrCP; conditions: published substrate; optimized test tube reaction with excess E1, E2, and E3 ligases, no competing peptidases; cited from earlier work
Excerpt: While there exist kinetic studies of specific E3 ligases, [47], [48] and individual degrons there has not been a comprehensive analysis of ubiquitination kinetics of multiple degrons in a single study. The presented work allowed for the calculation of rate constants for multiple degrons in a single cell line, effectively comparing the ubiquitination kinetics of different E3 ligase targets.

[4] = target: T1, Hdm2 (Homo sapiens, UniProt Q00987); assay: Cell-free ubiquitination assay; type: biochemical; conditions: 1 µM Hdm2, 1 µM Ube1, 10 µM UbcH5b, 10 µM peptide, wild type ubiquitin, 2 hours at 30°C
T1 construct: purchased Enzo Life Sciences
T1 sequence (Q00987 whole entry): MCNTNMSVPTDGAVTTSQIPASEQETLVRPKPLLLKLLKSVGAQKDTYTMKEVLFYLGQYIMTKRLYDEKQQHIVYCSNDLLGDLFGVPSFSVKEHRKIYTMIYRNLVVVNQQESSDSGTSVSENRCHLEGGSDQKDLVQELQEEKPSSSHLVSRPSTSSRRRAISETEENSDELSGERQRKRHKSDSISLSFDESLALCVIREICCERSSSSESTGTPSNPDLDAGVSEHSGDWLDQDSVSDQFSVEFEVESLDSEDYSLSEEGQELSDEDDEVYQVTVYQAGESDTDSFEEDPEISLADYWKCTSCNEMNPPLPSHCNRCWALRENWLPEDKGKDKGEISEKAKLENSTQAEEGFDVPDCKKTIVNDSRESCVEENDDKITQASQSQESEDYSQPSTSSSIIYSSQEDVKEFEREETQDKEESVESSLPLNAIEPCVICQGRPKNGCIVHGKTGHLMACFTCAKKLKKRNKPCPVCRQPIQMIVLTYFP
Protocol: Samples were run on gels and imaged as described above.
Figure 5 Variations in E3 ligase activity result in fluxuations in degron-based substrate ubiquitination. (A) To evaluate the impact of different levels of E3 ligase activity, the four top performing degron-based substrates (β-Catenin, Bonger, iNOS, and p53) were incubated in lysates from four different cell lines (HeLa, U937, THP-1, and HL60) in the ubiquitin pull down assay. Further, the assay was supplemented with wild type ubiquitin to examine polyubiquitin chain formation. All reaction mixtures were incubated for 2 hours at 37°C prior to continuation with the pull down assay. (B) The effects of a NEDD8 inhibitor (MLN-4924) and an E1 inhibitor (PYR-41) were examined on the TAZ-based substrate (a target of the SCF^βTrCP E3 ligase). The ubiquitin pull down was performed as previously described with the reactions incubated for 2 hours with the listed inhibitor concentrations at 37°C prior to continuation with the pull down assay. (C) A cell-free ubiquitination assay was performed on the p53-based substrate using an enzymatic cascade culminating with 1 µM Hdm2 and supplemented with wild type ubiquitin. Lane 1 contains all assay components, lane 2–4 were control experiments removing a member of the E1–E3 enzymatic cascade. […]

- k6, rate constant for peptidase-dependent degradation of mono-ubiquitinated substrate [1]: 0.1 (1/min)*10^3
- k7, rate constant for peptidase-dependent degradation of di-ubiquitinated substrate [1]: 0.1 (1/min)*10^3
- k8, rate constant for peptidase-dependent degradation of tri-ubiquitinated substrate [1]: 1.0 (1/min)*10^3
- k9, rate constant for peptidase-dependent degradation of tetra-ubiquitinated substrate [1]: 3.0 (1/min)*10^3
- k1/k5, mono-ubiquitination vs. degradation of unmodified substrate [2]: 1.55
Compound: KAWQQQSYLDSGIHSGATTTAPK(FAM)KKK [β-Catenin, fluorescein-tagged degron-based peptide substrate from β-Catenin, E3 ligase SCF^βTrCP]
- rate constant for β-Catenin ubiquitination previously reported [3]: 0.28 min⁻¹

Compound: Cc1ccc2ccc(C(Nc3ccccc3)c3ccccc3)c(O)c2n1 (centres unmarked) [NSC-66811]
- effect of inhibitor on Hdm2-dependent ubiquitination of the p53-based substrate ([4]; inhibitor 1 µM dose): pronounced decrease

- effect of inhibitor on Hdm2-dependent ubiquitination of the p53-based substrate ([4]; inhibitor 1, 10 µM): No decrease
Compound: CN(C)CCCNc1c2c(=O)n(C)c(=O)nc-2n(C)c2ccccc12 [HLI-373]
